Here are results for one molecule from patent US10947199B2, “Spiro and cyclic bis-benzylidene proteasome inhibitor for the treatment of cancer, diabetes and neurological disorders” (UP THERAPEUTICS, INC., priority 2017, dated 2021).

“Also recorded” adds a separate entry of the source.

One data set deals with LNCaP. Kind of data set: MTT cell viability assay, LNCaP. Format: cell-based. The following applies: Prostate Cancer, 24 or 48 or 72 hours. On the procedure:
(§1) Briefly cancer cells incubated with Up compounds for the period of 24 or 48 or 72 hours and the cell viability was measured using MTT assay. IC50 of compounds listed in Table1.
(In general: Formazan colour is commonly taken as a measure of viable cells.)

Another data set deals with PC-3. Kind of data set: MTT cell viability assay, PC-3. Format: cell-based. The following applies: PC-3, Prostate Cancer, 24 or 48 or 72 hours. The procedure: as §1
The test system of a further data set is DU145. The experiment in a line: MTT cell viability assay, DU145. Format: cell-based. The settings on record: DU145, Prostate Cancer, 24 or 48 or 72 hours. On the procedure:
as §1

The test system of the next data set is OV2008. The experiment in a line: MTT cell viability assay, OV2008. The following applies: OV2008, Ovarian Cancer, 24 or 48 or 72 hours. Format: cell-based. The procedure: as §1
The next data set relates to HCC1806. The experiment in a line: MTT cell viability assay, HCC1806. Format: cell-based. The following applies: HCC1806, Triple Negative Breast Cancer, 24 or 48 or 72 hours. The procedure:
as §1

Data set [1] concerns proteasome function (4Ub-FL reporter) in 293TT cells. Kind of data set: 4Ub-FL reporter assay of proteasome function in live cells. Format: cell-based. The settings on record: 293TT cells expressing 4Ub-FL. The source says:
To measure proteasome function in live cells, we utilized an engineered ubiquitin-firefly (4Ub-FL) reporter in which four copies of mutant ubiquitin (ubiquitin G76V) gene are fused to the N-terminus of the firefly luciferase (FL) gene. The results of this experiment, shown in FIG. 1, reveal that the 4Ub-FL reporter protein is rapidly degraded by the proteasome.
To measure proteasome function in live cells, we utilized an engineered ubiquitin-firefly (4Ub-FL) reporter in which four copies of mutant ubiquitin (ubiquitin G76V) gene are fused to the N-terminus of the firefly luciferase (FL) gene. The 4Ub-FL reporter protein is rapidly degraded by the proteasome (FIG. 6). […] Treatment of Up109 produced a greater increase in the 4Ub-FL bioluminescence in a dose dependent manner.

The target of another data set is T1, RPN13 (Homo sapiens, UniProt Q16186).
T1 construct: HeLa cell lysate was pretreated with Up109 or Up117; endogenous in cells; host or cells: HeLa cell lysate
T1 sequence (Q16186 whole entry): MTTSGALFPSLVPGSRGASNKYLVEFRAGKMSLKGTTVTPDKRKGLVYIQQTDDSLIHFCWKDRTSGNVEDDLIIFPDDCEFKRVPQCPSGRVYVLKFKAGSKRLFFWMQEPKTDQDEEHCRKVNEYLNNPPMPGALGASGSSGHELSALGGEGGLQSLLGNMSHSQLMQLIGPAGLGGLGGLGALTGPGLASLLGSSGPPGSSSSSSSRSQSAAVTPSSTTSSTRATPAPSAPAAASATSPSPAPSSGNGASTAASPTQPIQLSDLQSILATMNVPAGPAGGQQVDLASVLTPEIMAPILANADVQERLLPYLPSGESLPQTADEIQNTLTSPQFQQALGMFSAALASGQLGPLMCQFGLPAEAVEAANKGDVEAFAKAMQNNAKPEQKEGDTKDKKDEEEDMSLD
Kind of data set: RA190B probe competition assay, OV2008 cell lysate. The following applies: compound 25 μM, RA190B 5 μM. Format: binding. The procedure: To identify the cellular target, a competition assay was performed using RA190B probe. […] We used RA190B as a probe to determine the Up compounds binding to RPN13. OV2008 cell lysate was pretreated with Up compounds (25 μM) and then subsequently treated with RA190B (5 μM). Lysate was denatured under reduced conditions and proteins were separated on a gel and probed with HRP Streptavidin.

Data set [2] is described as follows: Dose limiting toxicity studies. Format: in vivo. On the procedure: To identify the optimal dose that induces a clinical effect and operates with acceptable toxicity a set of experiments has been performed on female Balb/C strain mice with Up109. Individual groups of mice (n=3) were injected i.p. with increasing single doses of Up109 (3, 10, 20, 40 and 100 mg/Kg) and the endpoint evaluations included clinical observations and body weights. […] Another experiment was done with repeated i.p. doses of Up109 (40 mg/Kg, n=5) every other day for two weeks.

Take `C=CC(=O)N1CCC2(CC1)C(=Cc1ccc([N+](=O)[O-])cc1)C(=O)C2=Cc1ccc([N+](=O)[O-])cc1` [Up109]: the IC50 amounted to 0.065 µM in the data set with LNCaP; 0.057 µM with PC-3; 0.077 µM in the data set on DU145; 0.034 µM with OV2008; 0.042 µM in the data set with HCC1806. The “increase in 4Ub-FL bioluminescence compared to before treatment” value in data set [1] is “thirteen-fold increase”. For the same molecule, the “4Ub-FL reporter stabilization / bioluminescence increase (qualitative)” value in data set [1] (dose dependent) was “greater increase in the 4Ub-FL bioluminescence than RA190; also recorded: stabilization and an increase in luciferase activity”. The “competition with RA190B for binding to RPN13” value on RPN13 is reported as “Disappearance of RA190B labeling”. Moreover, the “toxicities/weight loss, repeated dose” value in data set [2] (Balb/C mice, i.p. 40 mg/Kg every other day for two weeks) is “No observable toxicities/weight loss”. Besides, the “clinical observations and body weights, single dose” value in data set [2] (female Balb/C mice, single i.p. doses 3, 10, 20, 40 and 100 mg/Kg) is “No clinically apparent sign of adverse effect”.

As a reminder, the IC50 is the concentration that gives 50% inhibition. Read a low IC50 as greater potency.
